For one assay, the target named is T1, FAK (Homo sapiens, UniProt Q05397).
T1 construct: endogenous in cells; host or cells: A549
As to the kind of experiment: Western blot, target protein degradation in A549 Cell. The note with it: substrate protein remaining %, treated at 500 nM and 50 nM, 24 hours. The assay is classed as cell-based. As to the method:
(§1) Conventional Western blot assay was performed to evaluate the effects of the compounds of the present disclosure on the expression of target proteins in cells.
(§2) (1) Cell Seeding and Protein Harvesting: The selected cells were processed according to the cell seeding procedure and protein harvesting procedure in Table II-2. Table II-2 Cell Seeding and Protein Harvesting Procedures
(§3) (2) To the collected supernatant, 5X SDS sample loading buffer was added, followed by denaturation at 95°C for 5 minutes. The denatured samples were then separated by SDS-PAGE electrophoresis on a polyacrylamide gel. Proteins were transferred to a nitrocellulose membrane (0.45 µm NC membrane), blocked with blocking buffer at room temperature for 1 hour, and subjected to antibody incubation and development procedures according to the antibody manufacturer's instructions (Cell Signaling Technology).
(§4) Half-Maximal Degradation Concentration value (the drug concentration required for degrading proteins by 50%, abbreviated as DC50) reads method: comparing the grayscale values of Western blot bands from drug-treated samples with those from blank DMSO-treated controls, and identifying the drug concentration range at which the grayscale value is half that of the DMSO-treated control bands.
(§5) DC50 values can be calculated using ImageJ software to measure grayscale values of Western blot bands from drug-treated samples. The concentration-response curve is fitted to estimate the drug concentration corresponding to half the grayscale value.
(§6) Target protein remaining (%) refers to the percentage of target protein remaining in cells after treatment with protein degrader compounds.
(§7) Calculation method for target protein remaining (%): Use ImageJ software to measure grayscale values of Western blot bands from drug (protein degrader)-treated samples. The grayscale value of drug-treated bands is divided by that of internal control protein bands, and the resulting quotient is normalized to obtain the relative percentage of remaining target protein after protein degrader treatment. Target protein degradation rate(%) = 1−target protein remaining(%). [formula]
In general terms: Immunoblotting shows a protein as a band on a membrane.

For assay [1], the target named is T2, human Cereblon WT GST-tagged protein (Homo sapiens, UniProt Q96SW2).
T2 construct: purchased CISBIO 64BDCRBNPEH
T2 sequence (Q96SW2 whole entry): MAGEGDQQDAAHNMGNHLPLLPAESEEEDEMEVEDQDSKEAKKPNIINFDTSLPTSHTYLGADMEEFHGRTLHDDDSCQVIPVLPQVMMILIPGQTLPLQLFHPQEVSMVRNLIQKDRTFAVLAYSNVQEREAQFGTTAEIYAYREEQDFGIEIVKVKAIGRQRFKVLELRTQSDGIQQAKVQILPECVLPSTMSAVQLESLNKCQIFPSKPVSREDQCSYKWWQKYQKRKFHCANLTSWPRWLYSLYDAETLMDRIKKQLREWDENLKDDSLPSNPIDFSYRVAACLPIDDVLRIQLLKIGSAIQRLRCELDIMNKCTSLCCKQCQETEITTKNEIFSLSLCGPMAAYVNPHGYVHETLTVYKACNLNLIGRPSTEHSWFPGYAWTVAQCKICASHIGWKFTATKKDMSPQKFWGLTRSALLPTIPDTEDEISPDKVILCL
Put plainly: CRBN-binding affinity, HTRF (CEREBLON BINDING kit). The note with it: for inhibition at 0.5 µM: read-out: Inhibition Rate at 0.5 µM (%); for inhibition at 2 µM: read-out: Inhibition Rate at 2 µM (%). Put shortly: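 Binding to GST-tagged Cereblon was probed by HTRF tracer displacement (thalidomide-red acceptor, anti-GST Eu donor), with compounds present at final 2 µM and 0.5 µM.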
(In TR-FRET formats the signal depends on donor and acceptor labels being close together.)

The subject of another assay is MV-4-11. Put plainly: Tumor cell proliferation inhibition (CellTiter-Meiluncell Luminescent Cell Viability Assay). The class given is cell-based. The note with it: Homo sapiens, 96 hours, Table I-2, ALK inhibitors; for inhibition at 0.01 µM: MV4-11, 10 nM, read-out: Inhibition Rate at 10 nM (%); for inhibition at 0.5 µM: MV4-11, 500 nM, read-out: Inhibition Rate at 500 nM (%). Summed up: (§8)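 Following overnight seeding, tumor cells received serial compound dilutions to final levels that included 10 nM and 500 nM. Viability was assessed by luminescence at the end of the specified exposure time. Cultures were kept at 37°C with 5% CO2.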

Another assay relates to MM.1S. The description is as above. The note with it: Homo sapiens, MM1.S, MM.1S, 96 hours, Table I-2, ALK inhibitors; for inhibition at 0.01 µM: 10 nM, read-out: Inhibition Rate at 10 nM (%); for inhibition at 0.5 µM: 500 nM, read-out: Inhibition Rate at 500 nM (%). The class given is cell-based. Put shortly: as §8
Another assay concerns MCF-7. The assay is described as above. The assay is classed as cell-based. The note with it: Homo sapiens, 96 hours, Table I-2, ALK inhibitors; for inhibition at 0.01 µM: MCF7, 10 nM, read-out: Inhibition Rate at 10 nM (%); for inhibition at 0.5 µM: MCF7, 500 nM, read-out: Inhibition Rate at 500 nM (%). Summed up:
as §8

A further assay deals with T3, ALK (Homo sapiens, UniProt Q96SW2+Q9HC35+Q9UM73).
T3 construct: endogenous in cells; host or cells: H2228
T3 sequence (Q9HC35+Q9UM73 fused): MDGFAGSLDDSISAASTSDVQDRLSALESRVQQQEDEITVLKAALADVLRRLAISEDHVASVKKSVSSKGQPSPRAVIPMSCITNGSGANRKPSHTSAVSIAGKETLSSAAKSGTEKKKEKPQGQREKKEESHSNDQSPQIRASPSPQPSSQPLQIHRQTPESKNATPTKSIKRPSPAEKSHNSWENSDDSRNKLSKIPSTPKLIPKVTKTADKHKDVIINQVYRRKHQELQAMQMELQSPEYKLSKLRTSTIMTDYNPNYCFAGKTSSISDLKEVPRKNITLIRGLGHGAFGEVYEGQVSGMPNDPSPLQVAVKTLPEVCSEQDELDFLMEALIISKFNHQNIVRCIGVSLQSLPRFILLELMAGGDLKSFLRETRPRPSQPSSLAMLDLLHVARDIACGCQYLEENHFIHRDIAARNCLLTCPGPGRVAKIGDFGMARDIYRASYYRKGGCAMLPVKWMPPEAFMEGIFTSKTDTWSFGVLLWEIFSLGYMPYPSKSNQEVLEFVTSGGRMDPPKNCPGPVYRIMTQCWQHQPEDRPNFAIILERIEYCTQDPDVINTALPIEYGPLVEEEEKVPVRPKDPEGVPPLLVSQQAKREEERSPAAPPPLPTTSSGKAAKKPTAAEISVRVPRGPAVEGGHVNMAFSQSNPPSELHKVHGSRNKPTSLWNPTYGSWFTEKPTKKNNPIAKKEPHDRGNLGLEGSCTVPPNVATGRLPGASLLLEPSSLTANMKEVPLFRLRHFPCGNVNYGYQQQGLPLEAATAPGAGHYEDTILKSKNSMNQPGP
T3 sequence (Q96SW2 whole entry): as the sequence (Q96SW2 whole entry) above
T3 sequence (Q16531 whole entry partner): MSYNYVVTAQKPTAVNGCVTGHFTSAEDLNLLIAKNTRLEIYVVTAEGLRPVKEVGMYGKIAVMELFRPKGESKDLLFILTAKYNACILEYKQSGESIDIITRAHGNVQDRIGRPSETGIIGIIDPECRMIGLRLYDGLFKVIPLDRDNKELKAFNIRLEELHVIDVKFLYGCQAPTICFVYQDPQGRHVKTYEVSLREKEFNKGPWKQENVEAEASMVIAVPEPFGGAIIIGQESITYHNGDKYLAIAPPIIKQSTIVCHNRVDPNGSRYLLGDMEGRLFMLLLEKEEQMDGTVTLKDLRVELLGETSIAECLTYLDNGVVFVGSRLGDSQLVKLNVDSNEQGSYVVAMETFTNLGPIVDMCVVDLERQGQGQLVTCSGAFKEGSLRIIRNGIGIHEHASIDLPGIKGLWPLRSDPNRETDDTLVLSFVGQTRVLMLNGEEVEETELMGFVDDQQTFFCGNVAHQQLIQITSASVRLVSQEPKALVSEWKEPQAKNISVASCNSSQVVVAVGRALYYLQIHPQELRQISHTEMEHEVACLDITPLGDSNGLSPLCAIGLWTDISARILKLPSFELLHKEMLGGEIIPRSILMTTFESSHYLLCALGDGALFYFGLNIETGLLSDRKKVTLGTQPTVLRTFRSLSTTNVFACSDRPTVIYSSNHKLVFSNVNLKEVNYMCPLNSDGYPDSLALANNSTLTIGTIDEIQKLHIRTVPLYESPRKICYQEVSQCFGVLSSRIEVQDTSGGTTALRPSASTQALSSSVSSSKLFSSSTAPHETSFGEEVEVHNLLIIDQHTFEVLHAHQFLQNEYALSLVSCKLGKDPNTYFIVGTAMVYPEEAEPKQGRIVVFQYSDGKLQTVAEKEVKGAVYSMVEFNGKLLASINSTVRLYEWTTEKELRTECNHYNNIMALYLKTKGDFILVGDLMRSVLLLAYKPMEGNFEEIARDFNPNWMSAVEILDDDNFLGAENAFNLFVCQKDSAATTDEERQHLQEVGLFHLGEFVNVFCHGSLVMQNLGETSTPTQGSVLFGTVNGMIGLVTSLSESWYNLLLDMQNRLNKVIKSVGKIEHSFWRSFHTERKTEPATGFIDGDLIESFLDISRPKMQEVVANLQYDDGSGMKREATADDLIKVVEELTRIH
Put plainly: Western blot, target protein degradation in H2228 Cell. The assay is classed as cell-based. The note with it: substrate protein remaining %, treated at 500 nM and 50 nM, 24 hours. On the procedure:
as §1, §2, §3, §4, §5, §6, §7

The term inhibition denotes the change of the read-out against control, counted positive when it falls.

T1 sequence (Q05397 whole entry): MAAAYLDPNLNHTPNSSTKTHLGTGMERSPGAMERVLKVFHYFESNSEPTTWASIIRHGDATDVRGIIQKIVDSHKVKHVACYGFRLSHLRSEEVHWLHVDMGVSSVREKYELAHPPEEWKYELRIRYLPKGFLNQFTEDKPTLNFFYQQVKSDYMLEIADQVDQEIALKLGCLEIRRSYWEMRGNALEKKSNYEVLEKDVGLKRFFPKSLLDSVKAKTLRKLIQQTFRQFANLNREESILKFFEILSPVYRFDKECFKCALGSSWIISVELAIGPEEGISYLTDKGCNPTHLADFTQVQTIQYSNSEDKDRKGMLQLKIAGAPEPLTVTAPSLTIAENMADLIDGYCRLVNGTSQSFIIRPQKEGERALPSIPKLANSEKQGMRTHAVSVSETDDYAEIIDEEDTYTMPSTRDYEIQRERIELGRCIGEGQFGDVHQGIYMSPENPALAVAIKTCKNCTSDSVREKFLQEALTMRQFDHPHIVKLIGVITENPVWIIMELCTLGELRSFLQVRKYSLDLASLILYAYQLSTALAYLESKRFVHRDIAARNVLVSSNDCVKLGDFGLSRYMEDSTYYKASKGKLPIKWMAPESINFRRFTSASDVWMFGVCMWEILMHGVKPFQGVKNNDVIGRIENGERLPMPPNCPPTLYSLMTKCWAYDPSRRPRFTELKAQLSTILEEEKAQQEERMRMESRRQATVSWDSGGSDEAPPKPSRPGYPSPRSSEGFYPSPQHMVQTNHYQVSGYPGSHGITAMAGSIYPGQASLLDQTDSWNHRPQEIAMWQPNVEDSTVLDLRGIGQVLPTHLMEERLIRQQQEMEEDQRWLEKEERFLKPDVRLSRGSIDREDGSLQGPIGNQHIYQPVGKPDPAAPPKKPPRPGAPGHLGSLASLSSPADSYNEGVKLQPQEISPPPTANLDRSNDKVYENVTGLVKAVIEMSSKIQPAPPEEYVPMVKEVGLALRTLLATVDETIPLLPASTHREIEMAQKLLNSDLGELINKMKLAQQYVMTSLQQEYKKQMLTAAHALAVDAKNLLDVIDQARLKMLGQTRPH

For `CNC(=O)c1ccccc1Nc1cc(Nc2cc(C)c(C3CCN(Cc4ccc5c(c4)CN(C4CCC(=O)NC4=O)C5=S)CC3)cc2OC(C)C)ncc1C(F)(F)F` (centres unmarked) [GT-08782, 2-((2-((4-(1-((2-(2,6-dioxopiperidin-3-yl)-1-thioxoisoindolin-5-yl)methyl)piperidin-4-yl)-2-isopropoxy-5-methylphenyl)amino)-5-(trifluoromethyl)pyridin-4-yl)amino)-N-methylbenzamide], the “Degradation of substrate protein FAK” value at FAK was “A (0% ≤ substrate protein remaining % ≤ 80%)”.
In the case of `COc1cc(N2CCN(Cc3ccc4c(c3)CN(C3CCC(=O)NC3=O)C4=S)CC2)ccc1Nc1ncc(Cl)c(Nc2ccccc2P(C)(C)=O)n1` (centres unmarked) [GT-08675, 3-(5-((4-(4-((5-chloro-4-((2-(dimethylphosphoryl)phenyl)amino)pyrimidin-2-yl)amino)-3-methoxyphenyl)piperazin-1-yl)methyl)-1-thioxoisoindolin-2-yl)piperidine-2,6-dione], the inhibition at 0.5 µM in assay [1] is 80 to 100%; with MV-4-11, 70 to 80%; with MM.1S, 30 to 40%; in the assay on MCF-7 it was 40 to 50%. In assay [1], the inhibition at 2 µM lay within 80 to 100%. Moreover, the figures for the inhibition at 0.01 µM in the assay on MV-4-11, with MM.1S and in the assay on MCF-7 were 10 to 20%, 10 to 20% and 20 to 30%, respectively. Also, on ALK, the “Degradation of substrate protein ALK” value was “A (0% ≤ substrate protein remaining % ≤ 80%)”.
Take `COc1cc(N2CCN(Cc3ccc4c(c3)C(=S)N(C3CCC(=O)NC3=O)C4)CC2)ccc1Nc1ncc(Cl)c(Nc2ccccc2P(C)(C)=O)n1` (centres unmarked) [GT-08679, 3-(6-((4-(4-((5-chloro-4-((2-(dimethylphosphoryl)phenyl)amino)pyrimidin-2-yl)amino)-3-methoxyphenyl)piperazin-1-yl)methyl)-1-thioxoisoindolin-2-yl)piperidine-2,6-dione]: the inhibition at 0.5 µM was 60 to 80% in assay [1], 80 to 100% in the assay with MV-4-11, 20 to 30% with MM.1S and 40 to 50% in the assay on MCF-7. Besides, the inhibition at 2 µM in assay [1] is 80 to 100%. Further, the inhibition at 0.01 µM in the assay with MV-4-11 lay in the range of 50 to 60%; in the assay with MM.1S, 10 to 20%; in the assay on MCF-7, 20 to 30%. Besides, on ALK, the “Degradation of substrate protein ALK” value was “A (0% ≤ substrate protein remaining % ≤ 80%)”.
Consider `Cc1cc(Nc2ncc(Cl)c(Nc3ccccc3S(=O)(=O)C(C)C)n2)c(OC(C)C)cc1C1CCN(Cc2ccc3c(c2)C(=S)N(C2CCC(=O)NC2=O)C3)CC1` (centres unmarked) [GT-08678, 3-(6-((4-(4-((5-chloro-4-((2-(isopropylsulfonyl)pheny 1)amino)pyrimidin-2-yl)amino)-5-isopropoxy-2-methylphenyl)piperidin-1-yl)methyl)-1-thioxoisoindolin-2-yl)piperidine-2,6-dione], for which the inhibition at 0.5 µM in assay [1] lay within 40 to 53%; in the assay with MM.1S, 50 to 60%; in the assay on MCF-7, 40 to 50%. In assay [1], the inhibition at 2 µM is 60 to 80%. Further, the results for the inhibition at 0.01 µM in the assay on MM.1S and in the assay on MCF-7 were 0 to 10% and -20 to -10%, respectively. Moreover, the “Degradation of substrate protein ALK” value at ALK is “A (0% ≤ substrate protein remaining % ≤ 80%)”.
For `Cc1cc(Nc2ncc(Cl)c(Nc3ccccc3S(=O)(=O)C(C)C)n2)c(OC(C)C)cc1C1CCN(Cc2cccc3c2CN(C2CCC(=O)NC2=O)C3=S)CC1` (centres unmarked) [GT-08676, 3-(4-((4-(4-((5-chloro-4-((2-(isopropylsulfonyl)pheny 1)amino)pyrimidin-2-yl)amino)-5-isopropoxy-2-methylphenyl)piperidin-1-yl)methyl)-1-thioxoisoindolin-2-yl)piperidine-2,6-dione], the inhibition at 0.5 µM in assay [1] fell in the range of 40 to 53%; in the assay on MV-4-11, 60 to 70%; in the assay on MM.1S it was 30 to 40%; in the assay on MCF-7, 60 to 70%. For the same compound, in assay [1], the inhibition at 2 µM lay in the range of 60 to 80%. For the same compound, the inhibition at 0.01 µM in the assay with MV-4-11 lay in the range of 40 to 50%; in the assay on MM.1S, 10 to 20%; in the assay on MCF-7, 40 to 50%. The “Degradation of substrate protein ALK” value on ALK is recorded as “A (0% ≤ substrate protein remaining % ≤ 80%)”.

Source of the values: patent publication EP4745138A1, “THIO-GLUTARIMIDO ISOINDOLINONE DERIVATIVE, BIFUNCTIONAL PROTEIN DEGRADER CONTAINING SAME, AND USES THEREOF” (Gluetacs Therapeutics (Shanghai) Co., Ltd., priority 2023, dated 2025).
